Data as given in ChEMBL document CHEMBL5634146, “Discovery of benzimidazole-indazole derivatives as potent FLT3-tyrosine kinase domain mutant kinase inhibitors for acute myeloid leukemia” (Eur J Med Chem, 2023).

Experiments:
in vitro [1] = details: mouse, liver S9 fraction
in vitro [2] = details: human, liver S9 fraction

## N[C@H]1CC[C@H](NC(=O)c2ccc3[nH]nc(-c4nc5ccc(N6CCOCC6)cc5[nH]4)c3c2)C1
In vitro [1]
  remaining at 0.5 h: 61%
In vitro [2]
  remaining at 0.5 h: 61%
